Data as given in the NIST ThermoML archive (doi:10.1021/je100083w).

Conditions: Liquid, Bellows volumetry

O [water]
Conditions | specific volume [m3/kg]
303.43 K, 248900 kPa | 0.000922
303.48 K, 99200 kPa | 0.0009653
303.48 K, 149000 kPa | 0.0009492
303.49 K, 299100 kPa | 0.0009104
303.51 K, 149100 kPa | 0.0009494
303.52 K, 349300 kPa | 0.0008999
303.55 K, 299100 kPa | 0.000911
303.56 K, 199000 kPa | 0.000935
303.57 K, 198800 kPa | 0.0009353
303.57 K, 248800 kPa | 0.0009226
303.57 K, 249300 kPa | 0.0009222
303.61 K, 299200 kPa | 0.0009108
303.63 K, 349200 kPa | 0.0009004
303.72 K, 349100 kPa | 0.0009003
313.38 K, 149300 kPa | 0.0009528
313.38 K, 349300 kPa | 0.0009051
313.39 K, 69100 kPa | 0.0009801
313.39 K, 98800 kPa | 0.000969
313.39 K, 148800 kPa | 0.0009534
313.4 K, 69100 kPa | 0.0009799
313.4 K, 98600 kPa | 0.0009695
313.4 K, 199200 kPa | 0.0009386
313.41 K, 99000 kPa | 0.0009696
313.42 K, 149000 kPa | 0.0009538
313.42 K, 198900 kPa | 0.0009393
313.43 K, 69000 kPa | 0.0009796
313.44 K, 249300 kPa | 0.0009265
313.44 K, 299600 kPa | 0.0009155
313.44 K, 348900 kPa | 0.000904
313.45 K, 248900 kPa | 0.0009271
313.46 K, 199100 kPa | 0.0009397
313.46 K, 249200 kPa | 0.0009259
313.46 K, 299400 kPa | 0.0009151
313.46 K, 349500 kPa | 0.0009046
313.48 K, 299700 kPa | 0.0009144
323.04 K, 248700 kPa | 0.0009318
323.09 K, 198800 kPa | 0.0009435
323.13 K, 299200 kPa | 0.0009196
323.17 K, 249000 kPa | 0.0009307
323.17 K, 349400 kPa | 0.0009091
323.19 K, 299100 kPa | 0.0009191
323.21 K, 349000 kPa | 0.0009095
323.25 K, 248900 kPa | 0.0009312
323.26 K, 298400 kPa | 0.0009203
323.28 K, 199000 kPa | 0.0009438
323.3 K, 149300 kPa | 0.0009578
323.31 K, 99100 kPa | 0.0009737
323.33 K, 69200 kPa | 0.0009842
323.34 K, 198300 kPa | 0.0009446
323.34 K, 349300 kPa | 0.0009085
323.35 K, 68300 kPa | 0.0009846
323.35 K, 149000 kPa | 0.0009578
323.37 K, 99600 kPa | 0.0009736
323.41 K, 149200 kPa | 0.0009584
323.43 K, 99200 kPa | 0.0009742
323.46 K, 68800 kPa | 0.0009848
